Data: article PMC10096344 (Molecules, 2023)

Experiments:
[1] = tested on: pyr genes (pyrA, pyrB, pyrC, pyrD, pyrE and pyrF); assay: RT-PCR (qPCR) of pyr genes; type: cell-based, Pseudomonas aeruginosa; conditions: LP4C 10 μg/mL vs control
Method: The total RNA was isolated from P. aeruginosa cultures, and qPCR amplification was performed according to the instrument of the quantitative PCR system (Stratagene Mx3005P, Agilent, USA); the thermal cycler was then initiated by denaturation procedure for 2 min at 93 °C followed by 40 cycles of 1 min at 93 °C and 2 min at 55 °C. The gene-specific PCR primers were listed in Supplementary Table S3. The relative expression of genes was analyzed by the 2^−ΔΔCt method with normalization to gyrB level.

[2] = tested on: HUVEC (human umbilical vein endothelial cell); assay: Cytotoxicity test, CCK-8; type: cell-based
Method: (§1) Optical density was calculated by the microplate reader (BioTek flx800, Berten, USA).

[3] = tested on: CCC-HHM-2 (human embryonic myocardial tissue cell); assay: Cytotoxicity test, CCK-8; type: cell-based
Method: as §1

[4] = tested on: P. aeruginosa (ATCC27853); assay: Transcriptome assay (RNA-seq); type: cell-based, Pseudomonas aeruginosa; conditions: LP4C 10 μg/mL vs Vehicle Treatment Group
Method: The RNA sequencing was performed using Illumina HiSeq4000 according to the operation instructions (Illumina, CA, USA). Differential gene expression analysis of LP4C treatment and control groups was conducted; KEGG signaling pathway analysis was performed to map the connection of multiple genes.

C57BL/6 mice = type: in vivo
Method: All animals were closely observed every day for three weeks. The body weight and toxic effects were monitored and the survival rate was calculated. At the end of experiment, the survival mice were euthanized; vital organs, including heart, liver, lung, kidney and spleen, were then excised, weighed and preserved for histopathological observation.

[5] = Pharmacokinetics measurement; type: in vivo; conditions: SD rats; for plasma half-life: single dose
[6] = tested on: P. aeruginosa (ATCC27853) biofilm; assay: Bacterial biofilm formation (FITC staining, crystal violet staining); type: cell-based, Pseudomonas aeruginosa
Method: The bacterial biofilm growth and measurement was performed according to our previously reported method. Briefly, P. aeruginosa (ATCC27853) was cultured in the tube with nutrient broth containing 2% (w/v) glucose, shaken at 220 rpm for 12 h at 37 °C. The suspension was diluted to 1 × 10^6 CFU/mL and added to 96-well plates, the bacteria was cultured for 24 h at 37 °C for biofilm growth and the planktonic bacterial of each well was removed by PBS rinsing three times. To observe the biofilm formation, the fluorescein isothiocyanate (FITC) was added into the plates and incubated for 2 h at 37 °C; the labeled biofilm was then washed by PBS and visualized under the fluorescence microscopy (Olympus CKX53, Tokyo, Japan). The measurement of biofilm was performed according to the following procedure: the mature biofilm was fixed with 150 μL methanol and left to air dry, then stained with 150 μL of 1% (w/v) crystal violet solution for 15 min at room temperature. The plate was rinsed with PBS three times and 150 μL of glacial acetic acid was added to each well; the optical density was measured at 630 nm optical density using a microplate reader (Bio-Tek ELX800, Berten, USA).

S. typhimurium TA102 = assay: Bacterial reverse mutation assay (Ames assay); type: cell-based, Salmonell typhimurium; conditions: n = 3
Method: (§2) A sample of 2-aminofluorene (10 μg/plate) was used for TA97, TA98, TA100 +S9 test strains, while 1,8-dihydroxyanthraquinone (60 μg/plate) was used for the TA102 +S9 test strain. The histidine was added with the same amount. The plates were incubated for 48 h at 37 °C; the number of colonies was then counted per plate.

S. typhimurium TA100 = assay: Bacterial reverse mutation assay (Ames assay); type: cell-based, Salmonell typhimurium; conditions: n = 3
Method: as §2

S. typhimurium TA98 = assay: Bacterial reverse mutation assay (Ames assay); type: cell-based, Salmonell typhimurium; conditions: n = 3
Method: as §2

S. typhimurium TA97 = assay: Bacterial reverse mutation assay (Ames assay); type: cell-based, Salmonell typhimurium; conditions: n = 3
Method: as §2

[7] = tested on: P. aeruginosa (ATCC27853); assay: Anti-bacterial activity, inhibition zone diameter on agar; type: cell-based, Pseudomonas aeruginosa; conditions: LP4C 5, 10, 50, 100, 200 μg/mL
Method: P. aeruginosa (ATCC27853) was cultured in 3 mL LB culture medium, shaken at 220 rpm for 12 h at 37 °C and diluted to 1 × 10^6 CFU/mL. The culture disk was coated with 1% agar, and 100 μL bacterial suspension was added to the agar in the disk evenly. […] LP4C or reference antibiotics were then added in each hole. The disk was cultured for 12–16 h at 37 °C; the result was then observed and the inhibition zone diameter was measured.

[8] = 200 μg/mL vs anti-biofilm concentration of LP4C
[9] = LP4C under 200 μg/mL, 24 h, vs vehicle

N#CC1=C(N)Oc2c(c(=O)oc3ccccc23)C1c1cc(C(F)(F)F)cc(C(F)(F)F)c1 (stereo not shown) [LP4C]
expression of pyr genes [1]: could inhibit the expression of pyr genes significantly | non-toxic concentration relative to anti-biofilm concentration [2, 8]: at least 40 times | cell viability (CCK-8) [2, 9]: the cell viability was not affected | non-toxic concentration relative to anti-biofilm concentration [3, 8]: at least 40 times | cell viability (CCK-8) [3, 9]: the cell viability was not affected | most enriched pathway of DEGs (transcriptome) [4]: the DEGs number of pyrimidine metabolism was the most enriched | survival rate vs Control (C57BL/6 mice; 20 mg/kg to 320 mg/kg intragastric, three weeks): not a significant difference in the survival rate | death and toxicity signs (C57BL/6 mice; 20, 40 and 80 mg/kg intragastric, three-week period): no death and obvious toxicity sign was observed | histopathological changes (H&E) of heart, liver, lung, kidney and spleen (C57BL/6 mice; intragastric, vs control groups): no obvious pathological change was observed, except the slight hemorrhagic phenomena that occurred in the liver section in the 320 mg/kg LP4C Treatment Group | time during which blood concentration increased after administration ([5]; intragastric 10 mg/kg): ≤ 4 h | bioavailability ([5]; intragastric 10 mg/kg vs intravenous 5 mg/kg): 46.35% | plasma half-life ([5]; intragastric 10 mg/kg): 11 ± 1.26 h | time during which serum concentration declined rapidly ([5]; intravenous 5 mg/kg): 10 to 60 min | plasma half-life ([5]; intravenous 5 mg/kg): 14 ± 3.05 h | biofilm formation, crystal violet staining ([6]; LP4C 5 μg/mL to 200 μg/mL): could inhibit the biofilm formation in a dose-dependent manner | formation of biofilm, FITC staining ([6]; LP4C 5-200 μg/mL vs Vehicle Treatment Group): suppressed the formation of biofilm in a dose-dependent manner | concentration at which biofilm formation was still inhibited ([6]; inhibited even at this concentration): 5 µg/mL | number of bacterial revertant colonies (S. typhimurium TA102; LP4C 50 μg/plate, TA102, +S9, mean ± SD): 276 ± 11.2 | number of bacterial revertant colonies (S. typhimurium TA102; LP4C 50 μg/plate, TA102, −S9, mean ± SD): 260 ± 10.3 | number of bacterial revertant colonies (S. typhimurium TA102; LP4C 200 μg/plate, TA102, +S9, mean ± SD): 281 ± 9.36 | number of bacterial revertant colonies (S. typhimurium TA102; LP4C 200 μg/plate, TA102, −S9, mean ± SD): 271 ± 5.68 | number of bacterial revertant colonies (S. typhimurium TA102; LP4C 1000 μg/plate, TA102, +S9, mean ± SD): 279 ± 10.6 | number of bacterial revertant colonies (S. typhimurium TA102; LP4C 1000 μg/plate, TA102, −S9, mean ± SD): 267 ± 8.35 | number of bacterial revertant colonies (S. typhimurium TA102; LP4C 2000 μg/plate, TA102, +S9, mean ± SD): 280 ± 11.3 | number of bacterial revertant colonies (S. typhimurium TA102; LP4C 2000 μg/plate, TA102, −S9, mean ± SD): 262 ± 8.44 | number of bacterial revertant colonies (S. typhimurium TA102; LP4C 5000 μg/plate, TA102, +S9, mean ± SD): 273 ± 12.6 | number of bacterial revertant colonies (S. typhimurium TA102; LP4C 5000 μg/plate, TA102, −S9, mean ± SD): 256 ± 9.21 | number of bacterial revertant colonies (S. typhimurium TA100; LP4C 50 μg/plate, TA100, +S9, mean ± SD): 130 ± 7.68 | number of bacterial revertant colonies (S. typhimurium TA100; LP4C 50 μg/plate, TA100, −S9, mean ± SD): 117 ± 5.96 | number of bacterial revertant colonies (S. typhimurium TA100; LP4C 200 μg/plate, TA100, +S9, mean ± SD): 133 ± 7.34 | number of bacterial revertant colonies (S. typhimurium TA100; LP4C 200 μg/plate, TA100, −S9, mean ± SD): 116 ± 6.42 | number of bacterial revertant colonies (S. typhimurium TA100; LP4C 1000 μg/plate, TA100, +S9, mean ± SD): 131 ± 6.75 | number of bacterial revertant colonies (S. typhimurium TA100; LP4C 1000 μg/plate, TA100, −S9, mean ± SD): 120 ± 8.33 | number of bacterial revertant colonies (S. typhimurium TA100; LP4C 2000 μg/plate, TA100, +S9, mean ± SD): 132 ± 6.95 | number of bacterial revertant colonies (S. typhimurium TA100; LP4C 2000 μg/plate, TA100, −S9, mean ± SD): 120 ± 5.71 | number of bacterial revertant colonies (S. typhimurium TA100; LP4C 5000 μg/plate, TA100, +S9, mean ± SD): 130 ± 5.69 | number of bacterial revertant colonies (S. typhimurium TA100; LP4C 5000 μg/plate, TA100, −S9, mean ± SD): 122 ± 7.67 | number of bacterial revertant colonies (S. typhimurium TA98; LP4C 50 μg/plate, TA98, +S9, mean ± SD): 32 ± 3.6 | number of bacterial revertant colonies (S. typhimurium TA98; LP4C 50 μg/plate, TA98, −S9, mean ± SD): 26 ± 2.2 | number of bacterial revertant colonies (S. typhimurium TA98; LP4C 200 μg/plate, TA98, +S9, mean ± SD): 33 ± 4.1 | number of bacterial revertant colonies (S. typhimurium TA98; LP4C 200 μg/plate, TA98, −S9, mean ± SD): 26 ± 4.8 | number of bacterial revertant colonies (S. typhimurium TA98; LP4C 1000 μg/plate, TA98, +S9, mean ± SD): 32 ± 4.7 | number of bacterial revertant colonies (S. typhimurium TA98; LP4C 1000 μg/plate, TA98, −S9, mean ± SD): 25 ± 5.4 | number of bacterial revertant colonies (S. typhimurium TA98; LP4C 2000 μg/plate, TA98, +S9, mean ± SD): 32 ± 5.8 | number of bacterial revertant colonies (S. typhimurium TA98; LP4C 2000 μg/plate, TA98, −S9, mean ± SD): 26 ± 6.7 | number of bacterial revertant colonies (S. typhimurium TA98; LP4C 5000 μg/plate, TA98, +S9, mean ± SD): 31 ± 5.2 | number of bacterial revertant colonies (S. typhimurium TA98; LP4C 5000 μg/plate, TA98, −S9, mean ± SD): 24 ± 3.5 | number of bacterial revertant colonies (S. typhimurium TA97; LP4C 50 μg/plate, TA97, +S9, mean ± SD): 142 ± 7.13 | number of bacterial revertant colonies (S. typhimurium TA97; LP4C 50 μg/plate, TA97, −S9, mean ± SD): 123 ± 5.92 | number of bacterial revertant colonies (S. typhimurium TA97; LP4C 200 μg/plate, TA97, +S9, mean ± SD): 140 ± 8.55 | number of bacterial revertant colonies (S. typhimurium TA97; LP4C 200 μg/plate, TA97, −S9, mean ± SD): 122 ± 7.42 | number of bacterial revertant colonies (S. typhimurium TA97; LP4C 1000 μg/plate, TA97, +S9, mean ± SD): 142 ± 5.96 | number of bacterial revertant colonies (S. typhimurium TA97; LP4C 1000 μg/plate, TA97, −S9, mean ± SD): 119 ± 8.52 | number of bacterial revertant colonies (S. typhimurium TA97; LP4C 2000 μg/plate, TA97, +S9, mean ± SD): 140 ± 6.47 | number of bacterial revertant colonies (S. typhimurium TA97; LP4C 2000 μg/plate, TA97, −S9, mean ± SD): 120 ± 8.53 | number of bacterial revertant colonies (S. typhimurium TA97; LP4C 5000 μg/plate, TA97, +S9, mean ± SD): 141 ± 7.65 | number of bacterial revertant colonies (S. typhimurium TA97; LP4C 5000 μg/plate, TA97, −S9, mean ± SD): 112 ± 9.83 | growth inhibition / bactericidal activity (inhibition zone) [7]: no bactericidal activity
